In patent EP1561465A2, “Methods of use of fluoroquinolone compounds against bacteria” (LG Life Sciences, Ltd., priority 1999, dated 2001):
Converted amounts (≈) assume the structure as drawn. Read-outs that look alike come from different tables or passages of the source.

What was measured:
[1] = tested on: Salmonella spp.; test: MIC by agar dilution (NCCLS M7-A4), 288 enteropathogenic isolates, gemifloxacin and 15 other antimicrobials; type: cell-based
[2] = tested on: Haemophilus influenzae; test: MIC by agar dilution (NCCLS), 411 isolates Buenos Aires 1998-99; type: cell-based; details: Haemophilus influenzae (n = 65)
[3] = tested on: Enterobacter spp.; test: MIC by agar dilution (NCCLS), 322 nosocomial Gram negative isolates, Athens 1998; type: cell-based; details: Enterobacter, n = 57 isolates
[4] = tested on: Enterococcus faecalis; test: MIC by agar dilution (NCCLS), 411 isolates Buenos Aires 1998-99; type: cell-based; details: Enterococcus faecalis (n = 48)
[5] = tested on: Mycobacterium tuberculosis (MTB); test: MIC by proportions method (NCCLS M24-T, 1995), 82 MTB strains; type: cell-based; details: Mycobacterium tuberculosis; 82 MTB strains
[6] = tested on: Shigella spp.; test: MIC by agar dilution (NCCLS M7-A4), 288 enteropathogenic isolates, eight quinolones; type: cell-based; details: Shigella spp. (n = 21)
[7] = tested on: Campylobacter jejuni; test: MIC by agar dilution (NCCLS M7-A4), 288 enteropathogenic isolates, gemifloxacin and 15 other antimicrobials; details: Campylobacter jejuni
[8] = tested on: Escherichia coli; test: MIC by agar dilution (NCCLS), 322 nosocomial Gram negative isolates, Athens 1998; type: cell-based; details: Escherichia coli; n = 57 isolates
[9] = tested on: Staphylococcus aureus; test: MIC by NCCLS reference broth microdilution, 450 respiratory tract pathogens; type: cell-based
[10] = tested on: Streptococcus pneumoniae; test: MIC by NCCLS broth microdilution, 1100 Japanese clinical isolates 1997-1998; type: cell-based; details: for MIC50 / MIC90 / MIC: Streptococcus pneumoniae; for MIC50: read-out: MIC50; for MIC90: read-out: MIC90; for MIC: Streptococcus pneumoniae quinolone resistant
[11] = tested on: Staphylococcus aureus; test: as above; type: cell-based; details: for MIC: Staphylococcus aureus quinolone resistant
[12] = tested on: Moraxella catarrhalis; test: MIC by two-fold serial agar dilution, Sensitivity Disk agar-N (Kitasato isolates); type: cell-based; details: Moraxella catarrhalis (22)
[13] = tested on: Enterococcus faecalis; test: MIC by NCCLS broth microdilution, 1100 Japanese clinical isolates 1997-1998; type: cell-based; details: for MIC50 / MIC90: Enterococcus faecalis; for MIC90: read-out: MIC90
[14] = tested on: P. aeruginosa; test: MIC by two-fold serial agar dilution, quinolone-resistant strains; type: cell-based; details: Pseudomonas aeruginosa
[15] = tested on: Shigella spp.; test: MIC by NCCLS broth microdilution, 1100 Japanese clinical isolates 1997-1998; type: cell-based; details: Shigella spp. (n=34)
[16] = tested on: Morganella morganii; test: as above; type: cell-based
[17] = tested on: Moraxella catarrhalis; test: MIC by NCCLS reference broth microdilution, 450 respiratory tract pathogens; type: cell-based
[18] = tested on: Escherichia coli; test: MIC by NCCLS broth microdilution, 1100 Japanese clinical isolates 1997-1998; type: cell-based; details: for MIC50 / MIC90: Escherichia coli
[19] = β-lactamase positive and erythromycin resistant (n = 10)
[20] = Streptococcus pneumoniae amoxicillin resistant (n=40)
[21] = Streptococcus pneumoniae amoxicillin susceptible (n=35)
[22] = Streptococcus pneumoniae erythromycin resistant (n=34)
[23] = Streptococcus pneumoniae erythromycin susceptible (n=11)
[24] = Staphylococcus aureus oxacillin susceptible (n=41)
[25] = Staphylococcus aureus, Staphylococcus aureus oxacillin resistant (n=57)
[26] = Enterococcus faecalis ciprofloxacin resistant (n=15)
[27] = Enterococcus faecalis ciprofloxacin susceptible (n=24)
[28] = Escherichia coli ciprofloxacin resistant (n=5)
[29] = Escherichia coli ciprofloxacin susceptible (n=37)

## CC1COc2c(N3CCN(C)CC3)c(F)cc3c(=O)c(C(=O)O)cn1c23 (stereo not shown) [Ofloxacin, ofloxacin]
[1]; S. hadar(2), isolates with MICs for ciprofloxacin ≥[…], read-out: MIC
  MIC: 2 mg/L (≈ 5.53 µM)
[1]; S. newport(1), isolate with MIC for ciprofloxacin ≥[…], read-out: MIC
  MIC: 2 mg/L (≈ 5.53 µM)
[1]; Salmonella spp. N= 106
  MIC (mg/L) Range: 0.06 to 2 mg/L
[1]; Salmonella, S. tshiongwe(1), isolate with MIC for ciprofloxacin ≥[…], read-out: MIC
  MIC: 2 mg/L (≈ 5.53 µM)
[1]; Salmonella, read-out: MIC (mg/L) 50%, Salmonella spp. N= 106
  MIC: 0.12 mg/L (≈ 0.332 µM)
[1]; Salmonella, read-out: MIC (mg/L) 90%, Salmonella spp. N= 106
  MIC: 0.5 mg/L (≈ 1.38 µM)
[2]
  MIC90: 0.06 µg/mL (≈ 0.166 µM)
  MIC Range: 0.008 to 0.25 µg/mL
[3]; read-out: MIC50
  MIC50: 0.125 µg/mL (≈ 0.346 µM)
[3]; read-out: MIC90
  MIC90: 64 µg/mL (≈ 177 µM)
[4]
  MIC90: > 32 µg/mL
[5]
  MIC90: 2 µg/mL (≈ 5.53 µM)
[6]
  % Susceptible: 100%
  MIC50: 0.03 µg/mL (≈ 0.083 µM)
  MIC90: 0.06 µg/mL (≈ 0.166 µM)
  MIC Range: ≤0.015 to 0.06 µg/mL
[7]; read-out: MIC (mg/L) 50%
  MIC: 16 mg/L (≈ 44.3 µM)
[7]; read-out: MIC (mg/L) 90%
  MIC: 32 mg/L (≈ 88.6 µM)
[8]
  MIC50: 0.06 µg/mL (≈ 0.166 µM)
  MIC90: 0.25 µg/mL (≈ 0.692 µM)

## C[C@@H]1CN(c2c(F)c(N)c3c(=O)c(C(=O)O)cn(C4CC4)c3c2F)C[C@H](C)N1 [Sparfloxacin, sparfloxacin]
[9]; Staphylococcus aureus (n = 50)
  MIC: 0.06 to 1 µg/mL (≈ 0.153 to 2.55 µM)
  MIC50: 0.5 µg/mL (≈ 1.27 µM)
  MIC90: 0.5 µg/mL (≈ 1.27 µM)
[9]; β-lactamase negative (n = 20)
  MIC: 0.06 to 1 µg/mL (≈ 0.153 to 2.55 µM)
  MIC50: 0.5 µg/mL (≈ 1.27 µM)
  MIC90: 0.5 µg/mL (≈ 1.27 µM)
[9]; β-lactamase positive (n = 20)
  MIC: 0.12 to 1 µg/mL (≈ 0.306 to 2.55 µM)
  MIC50: 0.5 µg/mL (≈ 1.27 µM)
  MIC90: 0.5 µg/mL (≈ 1.27 µM)
[9]; [19]
  MIC: 0.25 to 1 µg/mL (≈ 0.637 to 2.55 µM)
  MIC50: 0.25 µg/mL (≈ 0.637 µM)
  MIC90: 0.5 µg/mL (≈ 1.27 µM)
[10]; [20]
  MIC Range: 0.125 to 4 µg/mL
  MIC50: 0.25 µg/mL (≈ 0.637 µM)
  MIC90: 0.25 µg/mL (≈ 0.637 µM)
[10]; [21]
  MIC Range: 0.032 to 4 µg/mL
  MIC50: 0.25 µg/mL (≈ 0.637 µM)
  MIC90: 0.5 µg/mL (≈ 1.27 µM)
[10]; [22]
  MIC Range: 0.032 to 4 µg/mL
  MIC50: 0.25 µg/mL (≈ 0.637 µM)
  MIC90: 0.25 µg/mL (≈ 0.637 µM)
[10]; [23]
  MIC Range: 0.125 to 0.25 µg/mL
  MIC50: 0.25 µg/mL (≈ 0.637 µM)
  MIC90: 0.25 µg/mL (≈ 0.637 µM)
[10]; strain TMS1
  MIC: 0.5 µg/mL (≈ 1.27 µM)
[10]; strain TMS2
  MIC: 8 µg/mL (≈ 20.4 µM)
[11]; Staphylococcus aureus oxacillin resistant (n=57)
  MIC Range: 0.032 to 128 µg/mL
[11]; [24]
  MIC90: 0.125 µg/mL (≈ 0.319 µM)
  MIC Range: 0.032 to 1 µg/mL
[11]; [25]
  MIC50: 4 µg/mL (≈ 10.2 µM)
  MIC90: 32 µg/mL (≈ 81.5 µM)
[11]; Staphylococcus aureus, Staphylococcus aureus oxacillin susceptible (n=41)
  MIC50: 0.063 µg/mL (≈ 0.161 µM)
[11]; Staphylococcus aureus, strain TMS1* (spontaneous mutant resistant to ciprofloxacin)
  MIC: 0.125 µg/mL (≈ 0.319 µM)
[11]; Staphylococcus aureus, strain TMS3, read-out: MIC
  MIC: 128 µg/mL (≈ 326 µM)
[11]; Staphylococcus aureus, strain TMS4, read-out: MIC
  MIC: 8 µg/mL (≈ 20.4 µM)
[11]; Staphylococcus aureus, strain TMS5, read-out: MIC
  MIC: 8 µg/mL (≈ 20.4 µM)
[11]; Staphylococcus aureus, strain TMS6, read-out: MIC
  MIC: 2 µg/mL (≈ 5.1 µM)
[12]
  MIC50: 0.016 µg/mL (≈ 0.0408 µM)
  MIC90: 0.031 µg/mL (≈ 0.079 µM)
  MIC Range: 0.016 to 0.031 µg/mL
[13]; [26]
  MIC Range: 0.5 to 64 µg/mL
  MIC50: 16 µg/mL (≈ 40.8 µM)
  MIC90: 64 µg/mL (≈ 163 µM)
[13]; [27]
  MIC Range: 0.5 to 1 µg/mL
  MIC50: 0.5 µg/mL (≈ 1.27 µM)
  MIC90: 1 µg/mL (≈ 2.55 µM)
[14]
  MIC: 2 µg/mL (≈ 5.1 µM)
[15]
  MIC50: ≤ 0.008 µg/mL
  MIC90: 0.032 µg/mL (≈ 0.0815 µM)
  MIC Range: ≤0.008 to 0.032 µg/mL
[16]; Morganella morganii
  MIC50: 0.125 µg/mL (≈ 0.319 µM)
[16]; Morganella morganii (n=40)
  MIC Range: 0.063 to 16 µg/mL
[16]; Morganella morganii (n=40), read-out: MIC90
  MIC90: 0.5 µg/mL (≈ 1.27 µM)
[17]; Moraxella catarrhalis (n = 50)
  MIC: 0.00375 to 0.06 µg/mL (≈ 0.00956 to 0.153 µM)
  MIC50: 0.015 µg/mL (≈ 0.0382 µM)
  MIC90: 0.03 µg/mL (≈ 0.0765 µM)
[17]; β-lactamase negative (n = 13)
  MIC: 0.00375 to 0.06 µg/mL (≈ 0.00956 to 0.153 µM)
  MIC50: 0.0075 µg/mL (≈ 0.0191 µM)
  MIC90: 0.06 µg/mL (≈ 0.153 µM)
[17]; β-lactamase positive (n = 37)
  MIC: 0.00375 to 0.06 µg/mL (≈ 0.00956 to 0.153 µM)
  MIC50: 0.015 µg/mL (≈ 0.0382 µM)
  MIC90: 0.03 µg/mL (≈ 0.0765 µM)
[18]; [28]
  MIC Range: 8 to 128 µg/mL
  MIC50: 32 µg/mL (≈ 81.5 µM)
[18]; [29]
  MIC Range: ≤0.008 to 0.25 µg/mL
  MIC50: 0.016 µg/mL (≈ 0.0408 µM)
  MIC90: 0.032 µg/mL (≈ 0.0815 µM)
[18]; Escherichia coli ciprofloxacin resistant (n=5), values marked *: MIC80 value
  MIC90: 128 µg/mL (≈ 326 µM)
